Measurements reported in patent US8722654B2, “Lipoxin analogs as novel inhibitors of angiogenesis” (The Brigham and Women's Hospital, Inc., priority 2001, dated 2014).

Legend:
HUVEC [1] = test: Inhibition of VEGF-stimulated HUVEC proliferation (MTT); type: cell-based, human
Method: (§1) Human umbilical vein endothelial cells (HUVEC) were isolated by 0.1% collagenase digestion (Worthington Biochemical, Bedford, Mass.) and propagated on gelatin-coated (0.1%) tissue culture plates in medium 199 (Gibco BRL, Grand Island, N.Y.) supplemented with 20% heat-inactivated fetal bovine serum (BioWhittaker, Walkersville, Md.), 50 μg/ml of endothelial cell mitogen (Biomedical Technologies, Stoughton, Mass.), 8 U/ml heparin (APP, Los Angeles, Calif.), 50 U/ml penicillin and 15 μg/ml streptomycin. Only passages 2 and 3 were used in reported experiments.
(§2) HUVEC (5×10^3) were plated in 96-well plates coated with 0.1% gelatin for 1 h at room temperature. After 24 h, the medium was removed and replaced with fresh medium 199 supplemented with 5% fetal bovine serum and different concentrations of recombinant human VEGF165 (R&D Systems, Minneapolis, Minn.), LTD4 or LTB4. Endothelial cells were enumerated after 72 h using the MTT® assay (Sigma, St. Louis, Mo.) (15). ATL-1 was prepared as in Clish et al. (13). Percent inhibition was evaluated in a similar manner and included a 15 minute incubation (37° C.) with 15-epi-lipoxin A4, 15-epi-16-(para-fluoro)-phenoxy-lipoxin A4 methyl ester (ATL-1), LXA4, 15-epi-LXA4 or 15-R/S-methyl, LXA4 prior to the addition of agonists. All incubations were performed in triplicate. Before each experiment the integrity and concentration of ATL-1, LXA4, 15-epi-LXA4 or 15-R/S-methyl, LXA4 was assessed by physical methods including LC/MS/MS and UV (13).

HUVEC [2] = test: HUVEC proliferation induced by the compound alone (MTT); type: cell-based, human
Method: as §1, §2

HUVEC [3] = test: Inhibition of LTD4-stimulated HUVEC proliferation (MTT); type: cell-based, human; details: LTD4 10 nM; ATL-1 0.1-100 nM; read-out: IC50, antagonism of mitogenic action of LTD4
Method: as §1
as §2, with “Endothelial cells were enumerated after 72 h using the MTT® assay (Sigma, St. Louis, Mo.) (15). ATL-1 was prepared as in Clish et al. (13).” left out, “All incubations were performed in triplicate.” left out

HUVEC [4] = test: Endothelial cell migration, 48-well chemotaxis chamber; type: cell-based, human
Method: VEGF, ATL-1 or vehicle were added to the lower wells of a 48-well chemotaxis chamber (NeuroProbe, Cabin John, Md.). The wells were overlaid with a 10 μm pore size polycarbonate filter coated with 0.1% gelatin. HUVEC (1×10^6) were placed in the upper wells and the chamber was incubated (37° C., 5% CO2 for 12 h). Following incubations, filters were removed, scraped of cells from the upper surface, fixed and stained with Diff-Quik (Dade Behring, Newark, Del.). Cells that migrated across the filter toward the lower surface were enumerated by light microscopy; four fields were counted at high magnification (100×). Incubations were performed in triplicate. To assess inhibition, endothelial cells were suspended in media with vehicle or ATL-1 for 15 min before placement in the chamber.

HUVEC [5] = test: HUVEC viability, trypan blue exclusion assay; type: cell-based, human; details: after exposure to ATL-1
HUVEC [6] = test: Quantitative determination of DNA fragmentation (apoptosis); type: cell-based, human; details: 100 nM alone or with VEGF 3 ng/ml; n=2, d=3
Method: DNA fragmentation in individual apoptotic cells was quantitated using a photometric enzyme immunoassay (Apotosis detection kit: R&D Systems). HUVECs grown in 96-well microtiter plates (5×10^3 cells/well) were incubated for 3 days, fixed with 3.7% formaldehyde, and permeabilized with proteinase K before the labeling. Biotinylated nucleotides are incorporated onto the DNA fragments and detected by using steptavidin-horseradish peroxidase conjugate followed by the substrate TACS-Sapphire.

murine air pouch = test: Inflammatory angiogenesis, VEGF-treated murine air pouch; type: in vivo, mice (BALB/c)
Method: Angiogenesis was assessed with murine air pouches that were raised via subcutaneous injection of sterile air (3 ml) beneath the dorsal skin of anesthetized mice (BALB/c, male 6-8 wk). After 24 hrs, ATL-1 (10 μg/pouch) or vehicle was delivered locally, immediately before the injection of VEGF (1 μg/pouch). The vascular content was assessed by the formation of vascular casts (as in 16). Briefly, mice were anesthetized (at 144 h) and peripheral vasodilation was raised by placing the animals in a heated jacket (40° C., 10 min). Vascular casts were formed by the i.v. injection of 1 ml 5% carmine red (Sigma) in 5% gelatin solution warmed to 40° C. Air pouch linings were dissected and weighed. The tissue was then dissolved in 2 ml of 3 N NaOH solution for 0.5 h, 21° C. and completely digested in hot water (56° C.) for 10 min. Digested samples were centrifuged (2500 rpm, 15 min) and filtered through a 0.45 μm filter. The dye content was quantified employing a 96-well plate spectrophotometer at 530 nm using a calibration curve. The results were expressed as vascular index (VI) as micrograms carmine dye/milligram weight of tissue, for n=4 animals/group. For visualization of the vasculature, the dorsal surface of the pouches was excised and fixed in formalin for 48 h. The tissues were dehydrated with 100% ethanol (5 days, 4° C.) and cleared by immersion in cedar wood oil for 2 weeks. In another set of experiments, mice were anesthetized and injected i.v. with 200 μl of 0.05 g/ml fluorescein isothiocyanate-dextran (Sigma) in PBS at 144 h immediately before sacrifice. Dissected linings were fixed, mounted on glass slides and examined for fluorescence (Nikon Eclipse model E600). In both protocols, the observers were not blinded to the treatments.
Air pouch membranous tissues were fixed in 10% buffered formalin overnight and processed for paraffin embedding. Five-micrometer paraffin sections of membrane tissue cut on face were used for immunohistochemistry for CD31 expression. Briefly, slides were deparaffinized and pretreated in 0.25% trypsin (Sigma Chemical) for 20 min at 37° C., followed by washing in distilled water. All further steps were performed at room temperature in a hydrated chamber. Slides were pretreated with Peroxidase Block (DAKO, Carpinteria, Calif.) for 5 min to quench endogenous peroxidase activity, followed by a 1:5 dilution of goat serum in 50 Mm Tris-Cl, pH 7.4, for 20 min to block nonspecific binding sites. Primary rat anti-murine CD31 antibody (BD PharMingen, San Diego, Calif.) was applied at a 1:100 dilution in 50 mMTris-Cl, pH 7.4, with 3% goat serum for 1 h. After washing in 50 mM Tris-Cl, pH 7.4, secondary rabbit anti-rat antibody (DAKO) was applied at a 1:200 dilution in 50 mM Tris-Cl, pH 7.4, with 3% goat serum for 30 min. Slides were washed again in 50 mM Tris-Cl, pH 7.4, and goat anti-rabbit horseradish peroxidase-conjugated antibody (Envision detection kit: DAKO) was applied for 30 min. After further washing, immunoperoxidase staining was developed using a DAB chromogen kit (DAKO) per the manufacturer and counterstained with hematoxylin.

[7] = Mean arterial pressure after i.v. dosing; type: in vivo; details: 10 μg/mouse i.v.

O=C(O)CCC[C@H](O)[C@H](O)/C=C/C=C/C=C\C=C\[C@@H](O)COc1ccc(F)cc1 [ATL-1, 15-epi-16-(para-fluoro)-phenoxy-lipoxin A4]
% of VEGF-stimulated proliferation (HUVEC [1]; ATL-1 plus genistein 50 μM, 5 min, 37° C., n=3): 78.0±6.21% | % of VEGF-stimulated proliferation (HUVEC [1]; ATL-1 without genistein): 38.0±2.5% | IC50 (HUVEC [1]; VEGF 3 ng/ml, 3 days, MTT, read-out: IC50, inhibition of VEGF-stimulated proliferation of HUVECs): ~3 nM | concentration of maximal plateau of inhibition (HUVEC [1]; VEGF-stimulated proliferation): 10 nM | % inhibition of VEGF-stimulated proliferation (HUVEC [1]; equimolar 10 nM, representative experiment): 63.3±3.3% | action on HUVEC proliferation, analog alone (HUVEC [2]; 100 nM, no VEGF): no apparent actions | IC50 (HUVEC [3]): ~3 nM | maximum level of inhibition of VEGF-stimulated HUVEC migration (HUVEC [4]; 10 nM, VEGF 3 ng/ml): ~45% | induction of endothelial cell migration, compound alone (HUVEC [4]; 100 nM, no VEGF): did not induce endothelial cell migration | inhibition of VEGF-stimulated HUVEC migration (HUVEC [4]; VEGF 3 ng/ml): concentration-dependent inhibition | HUVEC remaining viable (HUVEC [5]): ~98% | DNA fragmentation pattern (HUVEC [6]): Neither the ATL-1 (100 nM) alone nor in combination with VEGF (3 ng/ml) affected DNA fragmentation pattern | reduction in the vascular index (murine air pouch; 10 μg/pouch local, before VEGF 1 μg/pouch, day 6): ~48% | VEGF-elicited vasculature, fluorescein isothiocyanate-dextran microscopy (murine air pouch; 10 μg/pouch, day 6): striking reduction of VEGF-elicited vasculature | vessels by CD31 immunohistochemical staining (murine air pouch; VEGF-treated mice): marked diminution of vessels | vascular density, carmine vascular casts (murine air pouch; VEGF-treated, day 6 air pouch linings): clearly reduced vascular density | changes in mean arterial pressure [7]: does not evoke apparent changes

CCCCC/C=C\C[C@@H](O)/C=C/C=C/C=C\[C@@H](O)CCCC(=O)O [LTB4, reference compound]
stimulated proliferation of HUVEC (HUVEC [2]; 10 nM): did not give a significant response | neovascularization, compound alone (murine air pouch; 10 μg/pouch alone, n=2): stimulated neovascularization
